Results on one compound are retold here after article doi:10.1101/2025.07.05.663305v1, “Structure of Photosystem I with SOD reveals coupling between energy conversion and oxidative stress protection” (biorxiv, 2025).

The target in the assay is T1, FCPb (Chromera velia, UniProt A0A0G4ID45).
T1 construct: gene Cvel_13255; native PSI-SOD-FCPI supercomplex purified from cells; contacts PsaD, PsaL, PsaA2 and SOD1
T1 sequence (A0A0G4ID45 1-293): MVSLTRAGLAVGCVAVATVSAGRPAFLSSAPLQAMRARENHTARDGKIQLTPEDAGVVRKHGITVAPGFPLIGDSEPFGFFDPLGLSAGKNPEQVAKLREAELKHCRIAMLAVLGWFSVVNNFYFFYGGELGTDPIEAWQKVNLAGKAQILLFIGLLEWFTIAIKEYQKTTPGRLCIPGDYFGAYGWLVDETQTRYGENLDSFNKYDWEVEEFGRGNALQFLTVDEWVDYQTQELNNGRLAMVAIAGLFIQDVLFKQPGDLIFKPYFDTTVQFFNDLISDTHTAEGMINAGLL
As to the kind of experiment: cryo-EM structure. Format: binding. As to conditions: four sites 301, 302, 303, 305.

SMILES strings stand for the structures.

Regarding `CC(/C=C/C=C(C)/C=C/[C@@]12O[C@]1(C)C[C@@H](O)CC2(C)C)=C\C=C\C=C(C)\C=C\C=C(C)\C=C\[C@@]12O[C@]1(C)C[C@@H](O)CC2(C)C` [violaxanthin], the cryo-EM structure result is “FCPb binds ten Chls a and four violaxanthins”.
